Patent US8653076B2, “Oxo-substituted imidazo[1,2B]pyridazines, their preparation and use as pharmaceuticals” (Bayer Intellectual Property GmbH, priority 2006, dated 2014)

Assays:
protein kinase C theta = molecular target: T1, protein kinase C theta (Homo sapiens, UniProt Q04759); test: PKC-theta HTRF kinase assay; type: biochemical; details: recombinant PKC-theta, 10 μM ATP, read-out: Inhibition of PKC theta IC50
T1 construct: purchased ProQinase (Freiburg)
Protocol: Inhibition of the enzymic activity of the protein kinase C theta was determined with the aid of the PKC-theta HTRF assay.
Recombinant PKC-theta protein was purchased from ProQinase (Freiburg). The kinase substrate used was the biotinylated peptide having the amino acid sequence biotin-RFARKGSLRQKNVHEVK, which was purchased from Biosynthan (Berlin).
PKC-theta [0.7 nM in the assay mixture, assay volume 5 μl] was incubated at 22° C. for 15 min in the presence of various concentrations of test substances (0 μM, and 10 measurement points within the range 0.001-20 μM in duplicates) in assay buffer [50 mM Hepes/NaOH pH 7.4, 1.0 mM MnCl2, 10.0 mM MgCl2, 1.0 mM dithiothreitol, 0.1 mM sodium orthovanadate, 10 μM adenosine triphosphate (ATP), 0.5 μM substrate peptide, 0.1 mg/ml phosphatidyl serine, 0.01 mg/ml diacylglycerol, 1% (v/v) dimethyl sulfoxide]. The reaction was stopped by adding 5 μl of an EDTA/detection solution [50 mM Hepes/NaOH pH 7.4, 400 mM KF, 40 mM EDTA, 0.1% bovine serum albumin, 100 nM streptavidin-XLlent (from Cisbio, #611SAXLB), 1.8 nM anti-phospho PKC substrate crypate conjugate antibody (CisBio: #61P03KAZ)]. […]

[1] = tested on: interleukin 2 (IL-2) secretion; test: anti-CD3/anti-CD28 antibody-induced IL-2 secretion in human PBMC (ELISA); type: cell-based; details: human PBMC stimulated with anti-CD3 and anti-CD28, 20 hours
Protocol: The extent to which test substance influence antibody-induced interleukin 2 (IL-2) secretion was investigated in the following test system. IL-2 represents a central cytokine which is produced and released by activated T cells. IL-2 synthesis in the T cells is regulated by a plurality of kinases. An inhibitory effect of substances on kinases leads inter alia to inhibition of IL-2 synthesis and inhibition of the T cell immune response. The cytokine determinations were carried out using an ELISA kit.
Peripheral blood mononuclear cells (PBMC) were isolated from heparinized human whole blood by gradient centrifugation using Histopaque 1077 (Sigma) at room temperature, and the erythrocytes were lyzed hypotonically and, after washing twice in PBS, taken up in cell culture medium (10% fetal inactivated calf serum in RPMI-1640+Glutamax-I [Gibco]).
The 96 well culture plates (Costar) were previously incubated with 100 μl of antibody solution in PBS 0.1 μg/ml in PBS [Gibco]) per well at 4° C. for 18 hours. The antibodies used were anti-CD3 and anti-CD28 monoclonal antibodies (PharMingen). After washing with PBS three times, the plates were charged with 200 μl of the cell suspension (40 000 cells/well). […]
Interleukin-2 was determined using an ELISA kit (Bioscience), and the absorption of the color change was analyzed in a SpectraMax 340 PC (wavelength 450 nm). […]

T1 sequence (Q04759 whole entry): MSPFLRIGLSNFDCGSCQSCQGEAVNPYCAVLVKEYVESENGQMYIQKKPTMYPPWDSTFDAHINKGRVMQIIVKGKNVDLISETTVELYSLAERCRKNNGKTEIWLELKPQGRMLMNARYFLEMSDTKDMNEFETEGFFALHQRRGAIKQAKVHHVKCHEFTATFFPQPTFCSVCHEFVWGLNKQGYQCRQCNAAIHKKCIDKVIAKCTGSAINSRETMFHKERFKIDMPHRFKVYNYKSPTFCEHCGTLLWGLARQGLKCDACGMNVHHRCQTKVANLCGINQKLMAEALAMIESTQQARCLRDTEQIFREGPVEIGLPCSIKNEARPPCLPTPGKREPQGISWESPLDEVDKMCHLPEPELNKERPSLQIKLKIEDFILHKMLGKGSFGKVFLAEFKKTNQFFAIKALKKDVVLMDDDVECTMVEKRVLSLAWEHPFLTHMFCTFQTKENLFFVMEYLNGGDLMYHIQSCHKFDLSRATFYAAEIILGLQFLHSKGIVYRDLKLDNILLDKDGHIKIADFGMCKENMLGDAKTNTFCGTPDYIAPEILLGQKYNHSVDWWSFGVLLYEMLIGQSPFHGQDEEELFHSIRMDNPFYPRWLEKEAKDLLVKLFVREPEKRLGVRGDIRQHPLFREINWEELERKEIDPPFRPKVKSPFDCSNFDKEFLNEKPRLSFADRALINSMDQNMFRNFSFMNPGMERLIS

SMILES: Clc1cccc(-c2cnc3ccc(OCCCN4CCOCC4)nn23)c1 [Example 1, 3-(3-Chlorophenyl)-6-(3-morpholin-4-ylpropoxy)imidazo[1,2-b]pyridazine]
- IC50 (protein kinase C theta): 4100 nM
- inhibition at 10 µM ([1]; 10 μM): > 95%
- IC50 ([1]; IL-2 ELISA, read-out: IC50 (concentration for 50% inhibition of IL-2)): 1300 nM
